Literature values, collected in patent US20100086647A1, “FEED OR FOOD PRODUCTS COMPRISING FUNGAL MATERIAL” (MEDIMUSH AS, priority 2005, published 2010).

How the values were obtained:
B. megaterium = details: in vitro
E. coli = details: postulated
S. staphylococcus = details: in vitro
S. pyogenes = details: in vitro
C. jejuni = details: postulated

expression of cytochrome P450s (CYPs) (cytochrome P450s (CYPs))	Compound	antibacterial effect (B. megaterium)	effect on microorganism (E. coli)	antibacterial effect (S. staphylococcus)	antibacterial effect (S. pyogenes)	effect on microorganism (C. jejuni)
	C1SSCSSS1 [Lenthionine]	antibacterial	no effect	antibacterial	antibacterial	no effect
can suppress the expression	Lentinan					
